In patent publication US20180028498A1, “A PHARMACEUTICAL COMPOSITION FOR THE PARENTERAL ADMINISTRATION OF MELATONIN, AND A PROCESS FOR ITS PREPARATION” (INDUSTRIA FARMACEUTICA GALENICA SENESE S.R.L., priority 2015, published 2018):

What was measured:
[1] = Solubility / maximum concentration of melatonin in solvent; type: physicochemical; conditions: physiological saline solution, no excipients, co-solvents or diluents
Description: There are moreover disclosed in the literature injectable formulations of melatonin, that are in general solutions of melatonin in ethanol or in propylene glycol, then diluted with water. As a matter of fact, melatonin is known to be a substance that dissolves in aqueous media with great difficulties.
The present pharmaceutical compositions in the form of an aqueous solution, thanks to the process of preparation of the invention described in detail in the following, may contain, dissolved in aqueous solution, amounts of melatonin that are relatively high and suitable for the dosages required in medical treatments; the concentration of melatonin in the present compositions is indeed comprised between 0.2 and 0.4 mg/ml, this latter being the maximum value of concentration obtained for the melatonin in the present aqueous compositions, in the absence of any excipients, co-solvents or diluents different from the physiological saline solution.
A pharmaceutical dissolver of suitable size was deaerated by insufflation of filtered nitrogen, then the dissolver was charged with water for injections at 85° C., to fill approximately 80% of the inner volume of the dissolver. After cooling water at 50° C., sodium chloride was added in such amount as to obtain a final concentration of 9mg/ml; the so obtained solution was deaerated by bubbling filtered nitrogen. […]

[2] = cited from earlier work
[3] = tested on: free radicals (pro-inflammatory cytokines); conditions: ventilated infants with bronchopulmonary dysplasia; cited from earlier work
[4] = tested on: chronic lung disease; conditions: infants; cited from earlier work
[5] = tested on: pain; conditions: in combination with other drugs, endotracheal intubation in infants; cited from earlier work

COc1ccc2[nH]cc(CCNC(C)=O)c2c1 [melatonin, N-acetyl-5-methoxytriptamine]
maximum value of concentration obtained in aqueous composition [1]: 0.4 mg/mL
solubility in ethanol ([2]; ethanol): fairly good solubility
solubility in water ([2]; water): close to zero
reduction of production of free radicals (pro-inflammatory cytokines) [3]: effective in reducing the production of these molecules
efficacy in chronic lung disease [4]: same efficacy has been demonstrated
efficacy as an analgesic [5]: demonstrated the efficacy
